Reference: ChEMBL document CHEMBL3991601, “The target landscape of clinical kinase drugs” (Science, 2017)
Activity calls are given as the source filed them.

Experiments:
[1] = molecular target: DNA topoisomerase 2-beta (Homo sapiens, UniProt Q02880)
[2] = molecular target: Ephrin type-A receptor 7 (Homo sapiens, UniProt Q15375)
[3] = molecular target: T1, Uncharacterized protein FLJ45252 (Homo sapiens, UniProt Q6ZSR9); conditions: read-out: Kd apparent; k-562, colo 205, sk-n-be(2) and mv-4-11
T1 sequence (Q6ZSR9 whole entry): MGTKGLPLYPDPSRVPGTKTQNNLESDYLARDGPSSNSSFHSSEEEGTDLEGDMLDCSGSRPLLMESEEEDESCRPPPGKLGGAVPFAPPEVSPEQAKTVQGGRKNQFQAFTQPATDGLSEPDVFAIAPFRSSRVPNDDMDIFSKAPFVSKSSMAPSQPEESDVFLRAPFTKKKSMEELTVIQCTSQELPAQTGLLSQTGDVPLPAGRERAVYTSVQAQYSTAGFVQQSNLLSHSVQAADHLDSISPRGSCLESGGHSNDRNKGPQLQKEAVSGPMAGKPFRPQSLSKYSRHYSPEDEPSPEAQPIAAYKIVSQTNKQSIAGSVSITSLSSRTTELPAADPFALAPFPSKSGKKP

[4] = molecular target: T2, Dynamin-like GTPase OPA1, mitochondrial (Homo sapiens, UniProt O60313)
T2 sequence (O60313 whole entry): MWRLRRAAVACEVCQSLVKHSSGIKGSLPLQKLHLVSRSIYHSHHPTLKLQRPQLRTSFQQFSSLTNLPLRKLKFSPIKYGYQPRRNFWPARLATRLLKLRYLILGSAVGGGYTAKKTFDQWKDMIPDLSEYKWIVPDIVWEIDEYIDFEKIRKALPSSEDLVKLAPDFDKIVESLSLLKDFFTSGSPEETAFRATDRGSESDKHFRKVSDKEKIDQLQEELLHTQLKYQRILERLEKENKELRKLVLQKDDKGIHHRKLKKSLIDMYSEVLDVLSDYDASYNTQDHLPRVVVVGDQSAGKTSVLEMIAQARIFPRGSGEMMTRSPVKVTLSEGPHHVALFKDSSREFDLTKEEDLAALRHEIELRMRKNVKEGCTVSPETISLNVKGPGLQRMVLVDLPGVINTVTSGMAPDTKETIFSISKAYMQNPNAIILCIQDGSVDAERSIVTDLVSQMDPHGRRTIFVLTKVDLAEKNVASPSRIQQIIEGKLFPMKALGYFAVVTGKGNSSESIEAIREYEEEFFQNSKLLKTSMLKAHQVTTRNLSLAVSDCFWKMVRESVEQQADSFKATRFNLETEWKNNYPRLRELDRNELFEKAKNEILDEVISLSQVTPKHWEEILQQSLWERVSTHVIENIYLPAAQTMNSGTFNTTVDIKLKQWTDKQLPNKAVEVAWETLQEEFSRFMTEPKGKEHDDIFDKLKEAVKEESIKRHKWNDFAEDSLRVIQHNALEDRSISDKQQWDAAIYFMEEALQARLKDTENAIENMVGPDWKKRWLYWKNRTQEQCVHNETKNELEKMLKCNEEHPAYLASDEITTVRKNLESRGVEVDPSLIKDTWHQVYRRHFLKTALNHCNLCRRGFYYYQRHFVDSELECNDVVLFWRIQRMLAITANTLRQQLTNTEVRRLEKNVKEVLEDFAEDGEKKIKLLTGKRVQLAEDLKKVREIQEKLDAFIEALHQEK

[5] = molecular target: Bone morphogenetic protein receptor type-1A (Homo sapiens, UniProt P36894)
[6] = molecular target: T3, Serine/threonine-protein kinase LATS1 (Homo sapiens, UniProt O95835)
T3 sequence (O95835 whole entry): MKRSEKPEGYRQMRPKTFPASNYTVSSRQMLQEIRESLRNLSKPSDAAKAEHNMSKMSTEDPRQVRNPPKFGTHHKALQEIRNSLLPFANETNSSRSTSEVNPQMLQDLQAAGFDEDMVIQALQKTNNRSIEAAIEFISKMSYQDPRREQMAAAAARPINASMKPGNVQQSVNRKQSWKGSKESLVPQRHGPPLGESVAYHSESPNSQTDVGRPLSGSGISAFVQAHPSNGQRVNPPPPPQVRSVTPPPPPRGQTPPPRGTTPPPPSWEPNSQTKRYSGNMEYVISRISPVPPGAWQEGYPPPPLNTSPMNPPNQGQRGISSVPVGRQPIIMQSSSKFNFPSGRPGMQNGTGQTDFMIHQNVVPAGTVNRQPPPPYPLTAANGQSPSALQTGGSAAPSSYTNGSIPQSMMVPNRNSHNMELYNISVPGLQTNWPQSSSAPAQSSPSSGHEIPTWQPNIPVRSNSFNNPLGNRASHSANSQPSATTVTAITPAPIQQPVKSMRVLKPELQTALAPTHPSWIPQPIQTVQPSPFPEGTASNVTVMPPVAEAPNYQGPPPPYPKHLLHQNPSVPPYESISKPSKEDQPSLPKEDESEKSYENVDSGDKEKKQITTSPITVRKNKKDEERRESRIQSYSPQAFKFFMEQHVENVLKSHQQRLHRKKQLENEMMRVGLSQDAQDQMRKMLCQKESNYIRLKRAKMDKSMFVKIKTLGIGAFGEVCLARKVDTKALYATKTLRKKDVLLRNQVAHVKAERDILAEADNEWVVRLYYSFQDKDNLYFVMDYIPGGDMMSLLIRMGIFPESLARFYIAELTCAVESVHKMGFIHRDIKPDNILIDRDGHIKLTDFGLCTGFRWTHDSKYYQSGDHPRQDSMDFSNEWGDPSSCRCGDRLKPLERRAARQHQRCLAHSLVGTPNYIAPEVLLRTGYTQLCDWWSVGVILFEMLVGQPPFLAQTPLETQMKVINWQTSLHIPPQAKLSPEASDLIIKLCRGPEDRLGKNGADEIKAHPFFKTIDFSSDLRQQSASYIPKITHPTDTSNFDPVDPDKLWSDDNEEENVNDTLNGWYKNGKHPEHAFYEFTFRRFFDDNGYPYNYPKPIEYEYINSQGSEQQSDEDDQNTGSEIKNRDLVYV

[7] = molecular target: Cyclin-dependent kinase 1 (Homo sapiens, UniProt P06493)
[8] = molecular target: DnaJ homolog subfamily A member 1 (Homo sapiens, UniProt P31689)
[9] = molecular target: Non-receptor tyrosine-protein kinase TYK2 (Homo sapiens, UniProt P29597)
[10] = molecular target: Casein kinase I isoform alpha (Homo sapiens, UniProt P48729)
[11] = molecular target: Hepatocyte growth factor receptor (Homo sapiens, UniProt P08581)
Also: in the data inactive means no Kd found up to 30 µM.

Sequence of Non-receptor tyrosine-protein kinase TYK2 (P29597 whole entry, canonical isoform): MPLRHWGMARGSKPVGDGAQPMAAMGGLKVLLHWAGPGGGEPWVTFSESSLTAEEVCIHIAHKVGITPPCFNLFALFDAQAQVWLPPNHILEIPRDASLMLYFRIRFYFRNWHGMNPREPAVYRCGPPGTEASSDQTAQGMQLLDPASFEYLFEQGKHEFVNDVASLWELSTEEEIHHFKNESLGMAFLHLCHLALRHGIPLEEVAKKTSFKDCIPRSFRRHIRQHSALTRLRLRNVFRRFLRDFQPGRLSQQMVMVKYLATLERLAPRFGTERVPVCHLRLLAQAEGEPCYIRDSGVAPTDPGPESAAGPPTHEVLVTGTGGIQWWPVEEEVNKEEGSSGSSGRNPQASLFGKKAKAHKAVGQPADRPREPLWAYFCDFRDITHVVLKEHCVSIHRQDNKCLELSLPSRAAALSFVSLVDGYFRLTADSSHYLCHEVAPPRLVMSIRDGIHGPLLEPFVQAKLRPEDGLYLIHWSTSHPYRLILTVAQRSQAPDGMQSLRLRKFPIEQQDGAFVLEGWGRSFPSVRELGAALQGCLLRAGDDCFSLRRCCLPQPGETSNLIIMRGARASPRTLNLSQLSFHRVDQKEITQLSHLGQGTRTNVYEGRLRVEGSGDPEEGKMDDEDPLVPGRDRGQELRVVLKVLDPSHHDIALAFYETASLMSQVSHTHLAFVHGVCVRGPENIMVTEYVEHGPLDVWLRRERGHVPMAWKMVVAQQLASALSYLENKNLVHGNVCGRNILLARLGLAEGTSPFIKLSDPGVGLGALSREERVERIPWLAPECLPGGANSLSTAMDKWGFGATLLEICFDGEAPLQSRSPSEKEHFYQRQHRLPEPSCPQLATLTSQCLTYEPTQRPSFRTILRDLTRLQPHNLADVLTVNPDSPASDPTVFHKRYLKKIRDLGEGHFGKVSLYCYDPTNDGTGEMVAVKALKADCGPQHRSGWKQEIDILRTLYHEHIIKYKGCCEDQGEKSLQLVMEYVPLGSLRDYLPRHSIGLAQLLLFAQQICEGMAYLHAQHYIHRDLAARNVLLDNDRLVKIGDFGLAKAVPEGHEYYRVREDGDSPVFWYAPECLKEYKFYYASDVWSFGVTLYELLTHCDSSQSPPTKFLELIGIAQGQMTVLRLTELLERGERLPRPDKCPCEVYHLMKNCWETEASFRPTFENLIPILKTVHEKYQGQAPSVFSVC
Sequence of Casein kinase I isoform alpha (P48729 whole entry, canonical isoform): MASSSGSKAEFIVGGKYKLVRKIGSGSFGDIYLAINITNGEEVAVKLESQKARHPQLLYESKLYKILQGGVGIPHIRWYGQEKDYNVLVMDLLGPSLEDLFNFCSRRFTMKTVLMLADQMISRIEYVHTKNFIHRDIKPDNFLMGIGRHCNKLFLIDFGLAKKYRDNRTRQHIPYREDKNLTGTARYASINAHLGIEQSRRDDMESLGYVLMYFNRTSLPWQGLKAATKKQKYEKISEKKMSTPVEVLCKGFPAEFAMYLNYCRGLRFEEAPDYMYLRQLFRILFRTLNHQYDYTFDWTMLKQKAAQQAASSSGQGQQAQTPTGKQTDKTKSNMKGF
Sequence of Hepatocyte growth factor receptor (P08581 whole entry): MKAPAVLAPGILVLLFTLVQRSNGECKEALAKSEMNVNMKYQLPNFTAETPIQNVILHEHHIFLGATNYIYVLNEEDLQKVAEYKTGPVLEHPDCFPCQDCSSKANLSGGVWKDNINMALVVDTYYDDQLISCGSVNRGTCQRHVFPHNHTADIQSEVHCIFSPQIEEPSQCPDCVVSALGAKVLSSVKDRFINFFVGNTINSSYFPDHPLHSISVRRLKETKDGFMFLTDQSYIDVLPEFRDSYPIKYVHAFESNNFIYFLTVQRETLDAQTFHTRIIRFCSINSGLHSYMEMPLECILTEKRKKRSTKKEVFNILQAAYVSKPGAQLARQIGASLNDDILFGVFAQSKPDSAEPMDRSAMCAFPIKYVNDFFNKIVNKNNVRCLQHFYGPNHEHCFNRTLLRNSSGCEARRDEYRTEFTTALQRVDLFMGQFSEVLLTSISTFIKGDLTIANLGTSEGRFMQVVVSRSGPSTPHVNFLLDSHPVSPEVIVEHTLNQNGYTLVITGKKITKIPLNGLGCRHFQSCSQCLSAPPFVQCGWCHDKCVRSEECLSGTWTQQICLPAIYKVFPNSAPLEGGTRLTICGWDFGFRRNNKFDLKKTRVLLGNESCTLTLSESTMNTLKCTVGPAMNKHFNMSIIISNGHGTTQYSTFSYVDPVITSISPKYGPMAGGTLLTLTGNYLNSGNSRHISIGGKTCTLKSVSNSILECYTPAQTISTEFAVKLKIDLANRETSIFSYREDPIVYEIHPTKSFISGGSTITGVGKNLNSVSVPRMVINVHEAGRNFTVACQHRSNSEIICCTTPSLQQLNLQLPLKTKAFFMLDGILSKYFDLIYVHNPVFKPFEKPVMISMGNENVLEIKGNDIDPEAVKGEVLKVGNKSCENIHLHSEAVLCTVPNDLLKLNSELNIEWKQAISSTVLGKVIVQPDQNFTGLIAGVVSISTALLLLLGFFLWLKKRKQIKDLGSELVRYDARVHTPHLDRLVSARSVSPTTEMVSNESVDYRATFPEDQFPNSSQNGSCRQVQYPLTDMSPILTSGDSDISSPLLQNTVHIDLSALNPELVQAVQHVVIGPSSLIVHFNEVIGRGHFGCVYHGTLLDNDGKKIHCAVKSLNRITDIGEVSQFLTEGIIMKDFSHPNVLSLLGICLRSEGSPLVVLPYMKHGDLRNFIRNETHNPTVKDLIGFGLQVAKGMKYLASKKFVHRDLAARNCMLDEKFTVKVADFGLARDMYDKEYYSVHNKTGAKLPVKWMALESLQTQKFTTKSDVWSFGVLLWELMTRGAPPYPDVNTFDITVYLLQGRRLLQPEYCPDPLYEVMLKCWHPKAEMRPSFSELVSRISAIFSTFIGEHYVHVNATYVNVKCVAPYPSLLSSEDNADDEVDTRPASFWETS
Sequence of Cyclin-dependent kinase 1 (P06493 whole entry): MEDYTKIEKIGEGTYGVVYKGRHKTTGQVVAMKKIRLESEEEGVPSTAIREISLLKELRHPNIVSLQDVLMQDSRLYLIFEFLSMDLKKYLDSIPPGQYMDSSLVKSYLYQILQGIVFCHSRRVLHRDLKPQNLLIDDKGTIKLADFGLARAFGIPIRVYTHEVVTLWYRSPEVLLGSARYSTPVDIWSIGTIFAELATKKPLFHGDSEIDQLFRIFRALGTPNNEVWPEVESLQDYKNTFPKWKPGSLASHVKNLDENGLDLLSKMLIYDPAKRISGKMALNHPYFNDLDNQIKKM
Sequence of Bone morphogenetic protein receptor type-1A (P36894 whole entry): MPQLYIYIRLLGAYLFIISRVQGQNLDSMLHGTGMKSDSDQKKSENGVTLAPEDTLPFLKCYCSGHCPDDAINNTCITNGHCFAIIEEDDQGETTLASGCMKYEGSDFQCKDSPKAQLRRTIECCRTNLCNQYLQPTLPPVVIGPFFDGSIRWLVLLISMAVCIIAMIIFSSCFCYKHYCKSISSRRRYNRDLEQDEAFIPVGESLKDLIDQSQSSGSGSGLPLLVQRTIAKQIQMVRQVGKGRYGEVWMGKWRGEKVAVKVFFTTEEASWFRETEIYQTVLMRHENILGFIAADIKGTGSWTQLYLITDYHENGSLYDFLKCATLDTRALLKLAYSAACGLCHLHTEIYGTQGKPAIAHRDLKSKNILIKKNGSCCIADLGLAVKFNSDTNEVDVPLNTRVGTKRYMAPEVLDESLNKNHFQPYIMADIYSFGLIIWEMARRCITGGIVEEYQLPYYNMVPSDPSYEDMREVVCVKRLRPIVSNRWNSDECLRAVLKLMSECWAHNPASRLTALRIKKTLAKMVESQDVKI
Sequence of DnaJ homolog subfamily A member 1 (P31689 whole entry): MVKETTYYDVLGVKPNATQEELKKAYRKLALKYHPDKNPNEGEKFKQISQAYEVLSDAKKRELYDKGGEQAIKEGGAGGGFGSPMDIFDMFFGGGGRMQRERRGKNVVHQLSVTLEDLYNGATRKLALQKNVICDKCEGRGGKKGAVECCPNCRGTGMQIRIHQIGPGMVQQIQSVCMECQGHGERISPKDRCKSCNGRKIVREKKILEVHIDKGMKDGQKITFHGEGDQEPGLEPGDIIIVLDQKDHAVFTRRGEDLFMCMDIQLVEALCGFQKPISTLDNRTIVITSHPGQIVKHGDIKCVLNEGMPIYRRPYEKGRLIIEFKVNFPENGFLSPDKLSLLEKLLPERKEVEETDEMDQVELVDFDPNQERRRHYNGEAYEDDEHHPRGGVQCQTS

| Kd [1] | Kd [2] | Kd [3] | Kd [4] | Kd [5] | Kd [6] | Kd [7] | Kd [8] | Kd [9] | Kd [11] | Structure (SMILES) | Kd [10] |
| --- | --- | --- | --- | --- | --- | --- | --- | --- | --- | --- | --- |
| > 30 µM (inactive) | > 30 µM (inactive) | > 30 µM (inactive) | > 30 µM (inactive) | > 30 µM (inactive) | > 30 µM (inactive) | – | – | – | – | COc1cc(Nc2ncc3c(n2)-c2ccc(Cl)cc2C(c2c(F)cccc2OC)=NC3)ccc1C(=O)O [ALISERTIB] | – |
| > 30 µM (inactive) | – | 2.3 µM (active) | > 30 µM (inactive) | – | – | > 30 µM (inactive) | > 30 µM (inactive) | – | – | CNC(=O)c1ccccc1Sc1ccc2c(/C=C/c3ccccn3)n[nH]c2c1 [AXITINIB] | – |
| > 30 µM (inactive) | – | > 30 µM (inactive) | > 30 µM (inactive) | > 30 µM (inactive) | > 30 µM (inactive) | > 30 µM (inactive) | > 30 µM (inactive) | > 30 µM (inactive) | – | Cc1cc(C(=O)NOCCO)c(Nc2ccc(I)cc2F)n(C)c1=O [AZD-8330] | > 30 µM (inactive) |
| > 30 µM (inactive) | – | > 30 µM (inactive) | > 30 µM (inactive) | > 30 µM (inactive) | > 30 µM (inactive) | > 30 µM (inactive) | > 30 µM (inactive) | > 30 µM (inactive) | > 30 µM (inactive) | Cc1nc2cc(-n3ncc(C(=O)c4cc5ccccc5[nH]4)c3N)ccc2[nH]1 [FGFR INHIBITOR DEBIO 1347] | > 30 µM (inactive) |
| > 30 µM (inactive) | – | > 30 µM (inactive) | > 30 µM (inactive) | – | – | > 30 µM (inactive) | > 30 µM (inactive) | – | – | C[C@@H](Oc1cc(-n2cnc3ccc(CN4CCN(C)CC4)cc32)sc1C(N)=O)c1ccccc1C(F)(F)F [GSK-461364] | – |
| > 30 µM (inactive) | > 30 µM (inactive) | – | > 30 µM (inactive) | > 30 µM (inactive) | > 30 µM (inactive) | > 30 µM (inactive) | > 30 µM (inactive) | – | > 30 µM (inactive) | CCn1cc(-c2ccnc3[nH]c(-c4cccc(CN(C)C)c4)cc23)c(-c2ccc(NC(=O)N(C)C)cc2)n1 [GSK-1070916] | – |
| > 30 µM (inactive) | > 30 µM (inactive) | 1.18 µM (active) | > 30 µM (inactive) | > 30 µM (inactive) | – | – | > 30 µM (inactive) | – | – | Cc1[nH]c(/C=C2\C(=O)Nc3ccccc32)c(C)c1CCC(=O)O [ORANTINIB] | – |
| > 30 µM (inactive) | > 30 µM (inactive) | > 30 µM (inactive) | > 30 µM (inactive) | – | > 30 µM (inactive) | – | > 30 µM (inactive) | – | – | NC(=O)c1c(OCc2c(F)cc(Br)cc2F)nsc1NC(=O)NCCCCN1CCCC1 [OSI-632] | – |
| > 30 µM (inactive) | > 30 µM (inactive) | 2.72 µM (active) | > 30 µM (inactive) | > 30 µM (inactive) | 0.157 µM (active) | > 30 µM (inactive) | > 30 µM (inactive) | > 30 µM (inactive) | > 30 µM (inactive) | Cc1nc(Nc2n[nH]c3c2CN(C(=O)N[C@H](CN(C)C)c2ccccc2)C3(C)C)c2sccc2n1 [PF-03758309] | > 30 µM (inactive) |
| > 30 µM (inactive) | > 30 µM (inactive) | 0.01 µM (active) | > 30 µM (inactive) | > 30 µM (inactive) | 0.406 µM (active) | – | > 30 µM (inactive) | – | – | CC(=O)NCC(=O)N1[C@@H]2CC[C@H]1c1ccc(Nc3ncc(C(F)(F)F)c(NC4CCC4)n3)cc12 [PF-03814735] | – |
| > 30 µM (inactive) | – | > 30 µM (inactive) | > 30 µM (inactive) | – | – | > 30 µM (inactive) | > 30 µM (inactive) | – | – | O=C(NOCCO)c1cc(CN2OCCCC2=O)c(F)c(F)c1Nc1ccc(I)cc1F [RO-4987655] | – |
| > 30 µM (inactive) | – | 0.196 µM (active) | > 30 µM (inactive) | – | – | > 30 µM (inactive) | > 30 µM (inactive) | – | – | N#CC[C@H](C1CCCC1)n1cc(-c2ncnc3[nH]ccc23)cn1 [RUXOLITINIB] | – |
| > 30 µM (inactive) | > 30 µM (inactive) | 0.106 µM (active) | > 30 µM (inactive) | 0.34 µM | > 30 µM (inactive) | > 30 µM (inactive) | > 30 µM (inactive) | > 30 µM (inactive) | > 30 µM (inactive) | C[C@@H](N)c1ccc(C(=O)Nc2ccnc3[nH]ccc23)cc1 [Y-39983] | – |

| Structure (SMILES) | Kd [1] | Kd [2] | Kd [3] | Kd [4] | Kd [5] | Kd [6] | Kd [7] | Kd [8] | Kd [9] | Kd [11] | Kd [10] |
| --- | --- | --- | --- | --- | --- | --- | --- | --- | --- | --- | --- |
| CC(C)(C)c1nc(-c2cccc(NS(=O)(=O)c3c(F)cccc3F)c2F)c(-c2ccnc(N)n2)s1 [DABRAFENIB] | > 30 µM (inactive) | > 30 µM (inactive) | > 30 µM (inactive) | > 30 µM (inactive) | > 30 µM (inactive) | > 30 µM (inactive) | 0.364 µM (active) | > 30 µM (inactive) | – | – | > 30 µM (inactive) |
| Cn1cc(C2=C(c3cn(C4CCN(Cc5ccccn5)CC4)c4ccccc34)C(=O)NC2=O)c2ccccc21 [ENZASTAURIN] | > 30 µM (inactive) | – | > 30 µM (inactive) | > 30 µM (inactive) | – | – | > 30 µM (inactive) | > 30 µM (inactive) | – | – | – |
| O=C(Nc1cc(C(F)(F)F)cc(C(F)(F)F)c1)c1cc(Cl)ccc1O [IMD-0354] | > 30 µM (inactive) | > 30 µM (inactive) | > 30 µM (inactive) | > 30 µM (inactive) | > 30 µM (inactive) | > 30 µM (inactive) | – | > 30 µM (inactive) | > 30 µM (inactive) | > 30 µM (inactive) | > 30 µM (inactive) |
| CCCCCCCCCCCCCCCCCCOP(=O)([O-])OC1CC[N+](C)(C)CC1 [PERIFOSINE] | > 30 µM (inactive) | > 30 µM (inactive) | > 30 µM (inactive) | > 30 µM (inactive) | > 30 µM (inactive) | > 30 µM (inactive) | > 30 µM (inactive) | > 30 µM (inactive) | > 30 µM (inactive) | – | > 30 µM (inactive) |
